Test results taken from patent US5847108A, “Clathrate of isoflavone derivatives and edible composition comprising the same” (Fujicco Co., Ltd., priority 1996, dated 1998).

Key:
[1] = Serum (blood) level of isoflavone derivatives after oral administration to ovariectomized rats; set-up: species or system Sprague-Dawley rats; settings: in vivo
Protocol: (§1) To obtain postmenopausal osteoporosis model, eighty-day-old Sprague-Dawley rats, on day 10 after ovariectomy, was grown for 28 days feeding with calcium deficient diet (Ca: 0.004%, P: 0.3%), with one group consisting of 5 to 6 rats. During the time the rats were growing, an isoflavone derivative, or a β-cyclodextrin clathrate thereof (see Table 3), was administered orally in the form of a solution or a suspension in 1% aqueous hydroxypropylcellulose. On the day before the final administration, urine was collected for 24 hours. Blood was collected from postcava at 4 hours after the final administration, and a femur was removed. The collected blood was separated to obtain serum according to a standard method. In order to determine the amounts of isoflavone derivatives in the obtained samples of urine and serum, the samples were subjected to the reactions for 2 hours at 37° C. through adding thereto 50 Units/ml of sulfatase (EC3.1.6.1; SIGMA CHEMICAL Co. LTD.) in 1 ml of acetate buffer (0.1M, pH 4.5). Then 1 ml of acetate buffer (0.1M, pH 4.5) containing β-glucuronidase (200 Units/ml, EC 3.2.1.31, WAKO JYUNYAKU KOGYO KABUSIKI KAISYA) was added to the mixture and incubated for 2 hours at 37° C. After treating it with Sep-Pak (Waters), the incubated solution was analyzed using HPLC as described in the above clathrate formation test. Concentration of each isoflavone derivatives in the sample was determined based on the values for daidzein, genistein, or glycitein as a standard. Bone density of femur was calculated based on wet weight and volume measured by pycnometer.

[2] = test system: postmenopausal osteoporosis model (femur); assay: Bone density of femur in postmenopausal osteoporosis model (ovariectomized rats, calcium deficient diet); assay type: in vivo, Sprague-Dawley rats; settings: ovariectomized rat femur, oral, 28 days; Means ± S.D.; a: vs nonclathrated, b: vs control (1%)
Protocol: as §1

[3] = 24 h urinary excretion of isoflavone derivatives after oral administration to ovariectomized rats; set-up: species or system Sprague-Dawley rats; settings: in vivo, rat, 24 h urine on day before final administration, Means ± S.D., a: significantly different from nonclathrated (1%), read-out: Urinary Excretion Rate
Protocol: as §1, with “Then 1 ml of acetate buffer (0.1M, pH 4.5) containing β-glucuronidase (200 Units/ml, EC 3.2.1.31, WAKO JYUNYAKU KOGYO KABUSIKI KAISYA) was added to the mixture and incubated for 2 hours at 37° C.” left out

[4] = in words, dietary intake; cited from earlier work

| SMILES | concentration at 4 h ([1]; rat) | Bone Density [2] | concentration at 4 h ([1]; heading: Blood Level, rat serum, oral, 4 hours after the final administration, Means ± S.D., a: significantly different from nonclathrated (1%)) | dose excreted at 24 h [3] | urinary excretion in Japanese female relative to female in Boston or Helsinki [4] |
| --- | --- | --- | --- | --- | --- |
| O=C(O)CC(=O)OC[C@H]1O[C@@H](Oc2ccc3c(=O)c(-c4ccc(O)cc4)coc3c2)[C@H](O)[C@@H](O)[C@@H]1O [6"-O-malonyldaidzin] | 0.85 ± 0.05 µg/mL | 1.488 ± 0.012 g/mL |  |  |  |
| O=c1c(-c2ccc(O)cc2)coc2cc(O)ccc12 [daidzein] | 0.65 ± 0.04 µg/mL | 1.489 ± 0.013 g/mL |  |  |  |
| O=c1c(-c2ccc(O)cc2)coc2cc(O)cc(O)c12 [genistein] | 0.68 ± 0.03 µg/mL | 1.492 ± 0.012 g/mL |  |  |  |
| CC(=O)OC[C@H]1O[C@@H](Oc2ccc3c(=O)c(-c4ccc(O)cc4)coc3c2)[C@H](O)[C@@H](O)[C@@H]1O [6"-O-acetyldaidzin] | 0.74 ± 0.05 µg/mL | 1.492 ± 0.014 g/mL |  |  |  |
| COc1cc2c(=O)c(-c3ccc(O)cc3)coc2cc1O [glycitein] | 0.63 ± 0.05 µg/mL | 1.493 ± 0.013 g/mL |  |  |  |
| COc1cc2c(=O)c(-c3ccc(O)cc3)coc2cc1O[C@@H]1O[C@H](COC(=O)CC(=O)O)[C@@H](O)[C@H](O)[C@H]1O [6"-O-malonylglycitin] | 0.78 ± 0.05 µg/mL | 1.489 ± 0.012 g/mL |  |  |  |
| COc1cc2c(=O)c(-c3ccc(O)cc3)coc2cc1O[C@@H]1O[C@H](CO)[C@@H](O)[C@H](O)[C@H]1O [glycitin] | 0.75 ± 0.06 µg/mL | 1.494 ± 0.015 g/mL |  |  |  |
| COc1cc2c(=O)c(-c3ccc(O)cc3)coc2cc1O[C@@H]1O[C@H](COC(C)=O)[C@@H](O)[C@H](O)[C@H]1O [6"-O-acetylglycitin] | 0.72 ± 0.06 µg/mL | 1.489 ± 0.012 g/mL |  |  |  |
| O=c1c(-c2ccc(O)cc2)coc2cc(O[C@@H]3O[C@H](CO)[C@@H](O)[C@H](O)[C@H]3O)ccc12 [daidzin] |  | 1.496 ± 0.015 g/mL | 0.84 ± 0.03 µg/mL | 9.3 ± 0.7% | ten times greater |

Now from value to molecule, other results behind:

| concentration at 4 h ([1]; rat) | SMILES | Bone Density [2] | concentration at 4 h ([1]; heading: Blood Level, rat serum, oral, 4 hours after the final administration, Means ± S.D., a: significantly different from nonclathrated (1%)) | dose excreted at 24 h [3] | urinary excretion in Japanese female relative to female in Boston or Helsinki [4] |
| --- | --- | --- | --- | --- | --- |
| 0.84 ± 0.04 µg/mL | O=C(O)CC(=O)OC[C@H]1O[C@@H](Oc2cc(O)c3c(=O)c(-c4ccc(O)cc4)coc3c2)[C@H](O)[C@@H](O)[C@@H]1O [6"-O-malonylgenistin] | 1.494 ± 0.013 g/mL |  |  |  |
| 0.78 ± 0.04 µg/mL | O=c1c(-c2ccc(O)cc2)coc2cc(O[C@@H]3O[C@H](CO)[C@@H](O)[C@H](O)[C@H]3O)cc(O)c12 [genistin] | 1.502 ± 0.007 g/mL |  |  |  |
| 0.78 ± 0.07 µg/mL | CC(=O)OC[C@H]1O[C@@H](Oc2cc(O)c3c(=O)c(-c4ccc(O)cc4)coc3c2)[C@H](O)[C@@H](O)[C@@H]1O [6"-O-acetylgenistin] | 1.494 ± 0.028 g/mL |  |  |  |
| 0.79 ± 0.03 µg/mL | COc1cc2c(=O)c(-c3ccc(O)cc3)coc2cc1O[C@@H]1O[C@H](COC(=O)CCC(=O)O)[C@@H](O)[C@H](O)[C@H]1O [6"-O-succinylglycitin] | 1.477 ± 0.032 g/mL |  |  |  |
| 0.82 ± 0.05 µg/mL | O=C(O)CCC(=O)OC[C@H]1O[C@@H](Oc2cc(O)c3c(=O)c(-c4ccc(O)cc4)coc3c2)[C@H](O)[C@@H](O)[C@@H]1O [6"-O-succinylgenistin] | 1.486 ± 0.028 g/mL |  |  |  |
| 0.86 ± 0.03 µg/mL | O=C(O)CCC(=O)OC[C@H]1O[C@@H](Oc2ccc3c(=O)c(-c4ccc(O)cc4)coc3c2)[C@H](O)[C@@H](O)[C@@H]1O [6"-O-succinyldaidzin] | 1.490 ± 0.030 g/mL |  |  |  |
